Tested on: patient with mitochondrial disease
Assay: Clinical Example 2: administration to a patient with mitochondrial disease
Format: in vivo, human
Details: agent dose in terms of L-arginine 0.5 g/kg/hr
Description: The agent for treating mitochondrial disease of the present invention was administered to a patient with mitochondrial disease at a dose in terms of L-arginine of 0.5 g/kg/hr.

For `N=C(N)NCCC[C@H](N)C(=O)O` [L-arginine alone, L-arginine], the “effects on the symptoms of the mitochondrial disease” value was “did not sufficiently exhibit” and the vomiting was “repetitive vomiting”.

Source: patent publication US20120322863A1, “PREVENTION OF AND COUNTERMEASURES AGAINST MITOCHONDRIAL DISEASE” (priority 2004, published 2012)
